# Experimental data: patent US20250049811A1, “METHODS OF TREATING PANCREATIC CANCER BY USING BET INHIBITOR AND PARP INHIBITOR” (NATIONAL CHENG KUNG UNIVERSITY, priority 2023, published 2025)
# Legend:
# BxPC3 cells = assay: MTT cytotoxicity / cell viability assay, BxPC3; assay type: cell-based; conditions: Homo sapiens, BXPC-3, 72 hours post-treatment, read-out: IC50 values in specified pancreatic cancer cell line
# Procedure: (§1) Four human PDAC cell lines were used in this study, including MIA-PaCa2, Panc-1, AsPC1, and BxPC3, in which the MIA-PaCa2, Panc-1 and AsPC1 comprises a KRAS mutation (i.e., KRAS mutant cell lines), and the BxPC3 has a wild-type KRAS gene (see, for example, Wen-Hsuan Chang et al., Cancer Lett. (2021), 517: 66-77; and Radu Pirlog et al., J Clin Invest. (2022), 132(14): e161454). The MIA-PaCa2 cells were cultured in RPMI1640 medium containing 10% fetal bovine serum (FBS) and 1% penicillin/streptomycin. The AsPC1, BxPC3 and Panc-1 cells were cultured in DMEM high glucose medium supplemented with 10% FBS and 1% penicillin/streptomycin.
# (§2) Cytotoxicity and cell proliferation were determined by using 3-(4,5-dimethylthiazol-2-yl)-2,5-diphenyltetrazolium bromide (MTT) assay. Specifically, the MIA-PaCa2 and Panc-1 were seeded in a 96-well plate (5×10^3 cells/well). […] The resulting formazan crystals were dissolved using dimethyl sulfoxide (DMSO), and the absorbance was measured at 495 nm using a microplate reader. The cell proliferation ability was quantified as the optical density (OD) value. The cytotoxicity induced by the treatments was determined by calculating the percentage of viable cells (dividing the optical density of the drug-treated samples by that of the control samples). […]
# MIA-PaCa2 cells = assay: MTT cytotoxicity / cell viability assay, MIA-PaCa2; assay type: cell-based; conditions: Homo sapiens, MIA PaCa-2, 72 hours post-treatment, read-out: IC50 values in specified pancreatic cancer cell line
# Procedure: as §1, §2
# AsPC1 cells = assay: MTT cytotoxicity / cell viability assay, AsPC1; assay type: cell-based; conditions: Homo sapiens, 72 hours post-treatment, read-out: IC50 values in specified pancreatic cancer cell line
# Procedure: as §1, §2
# [1] = system: MIA-PaCa2 subcutaneous tumor; assay: Subcutaneous tumor model; assay type: in vivo, NOD-SCID male mice; conditions: oral, five times per week for three weeks; mivebresib 1 mg/Kg, rucaparib 10 mg/Kg; FIG. 2
# Procedure: The MIA-PaCa2 cells (2×10^6) were suspended in 10 μL phosphate buffered saline (PBS), and then subcutaneously injected to NOD-SCID male mice (6-8 weeks old). After 14 days (the tumor size was about 100-150 mm^3), PBS, mivebresib (1 mg/Kg), rucaparib (10 mg/Kg), or the combination of mivebresib and rucaparib (1 mg/Kg of mivebresib plus 10 mg/Kg of rucaparib) was orally administered to the mice five times per week, for three consecutive weeks. The tumor size was measured using caliper every 2-3 days, until the mice met humane endpoint criteria and were euthanized.
# Two tumor models, including subcutaneous and orthotropic tumor models, were used in the example to evaluate the anti-tumor effect of mivebresib and rucaparib on pancreatic cancer. As described in “Materials and Methods”, the tumor-bearing mice were respectively administered with PBS, mivebresib, rucaparib, and the combination of mivebresib and rucaparib. The tumor sizes were monitored by caliper and IVIS® imaging system. The results were respectively depicted in FIG. 2 (subcutaneous tumor model) and FIG. 3 (orthotropic tumor model).
# Panc-1 cells = assay: MTT cytotoxicity / cell viability assay, Panc-1; assay type: cell-based; conditions: Homo sapiens, 72 hours post-treatment, read-out: IC50 values in specified pancreatic cancer cell line
# Procedure: as §1, §2
# pancreatic cancer = assay: Overall survival of pancreatic cancer patients with neoadjuvant chemotherapy; assay type: in vivo, human; conditions: patients with cisplatin treatment (without: 18.96 months); data not shown
# Procedure: Whether neoadjuvant chemotherapy (a chemotherapy that a cancer patient receives before the primary course of surgical treatment) would affect the overall survival of cancer patients was determined in the example. According to the results, the overall survivals of patient with or without cisplatin treatment were respectively 26.36 and 18.96 months (data not shown). Then, the patients receiving the platinum-based therapy were further divided into responder group and non-responder group.
SMILES,IC50 (BxPC3 cells) [nM],IC50 (MIA-PaCa2 cells) [nM],IC50 (AsPC1 cells) [nM],tumor growth (tumor size by caliper) [1],IC50 (Panc-1 cells) [nM],overall survival (pancreatic cancer) [months]
"CNCc1ccc(-c2[nH]c3cc(F)cc4c3c2CCNC4=O)cc1 [Rucaparib, rucaparib]",2510,2440,2360,inhibited tumor growth,1980,–
N.N.[Cl][Pt][Cl] [cisplatin],–,–,–,–,–,26.36
"CCS(=O)(=O)Nc1ccc(Oc2ccc(F)cc2F)c(-c2cn(C)c(=O)c3[nH]ccc23)c1 [Mivebresib, mivebresib]",273,260,191,inhibited tumor growth,1410,–
